The values that follow come from US12404239B2, “Modulators of BCL6 as ligand directed degraders” (Celgene Corporation, priority 2022, dated 2025).

The structures appear in SMILES notation. Some results are limits rather than exact numbers.

The target in the experiment is T1, BCL6 (Homo sapiens, UniProt P41182).
T1 construct: HiBiT-tag knocked into endogenous BCL6 locus using CRISPR; endogenous in cells; host or cells: DHL-4_BCL6_HiBiT cells (CRISPR knock-in)
Kind of experiment: BCL6_HiBiT degradation assay (2 h). The format is cell-based. The note with it: DHL-4_BCL6_HiBiT cells, read-out: YCon (% remaining maximal effect). An outline of the steps: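 DHL-4 cells carrying CRISPR HiBiT knock-in at endogenous BCL6, treated 2 h at 37 °C with 10-point 3-fold dilutions from 1-10 μM. BCL6 level read by Nano-Glo HiBiT lytic luminescence normalized to DMSO; four-parameter fit gives degradation EC50 and Yconstant (% remaining at maximal effect).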
Consider `C[C@@H]1CN(c2ncc(C#N)c(Nc3ccc4c(c3)CC(=O)N4C)n2)CC[C@H]1Nc1ccc2c(N3CCC(=O)NC3=O)nn(C)c2c1` [Example 132, 2-((3R,4R)-4-((3-(2,4-dioxotetrahydropyrimidin-1(2H)-yl)-1-methyl-1H-indazol-6-yl)amino)-3-methylpiperidin-1-yl)-4-((1-methyl-2-oxoindolin-5-yl)amino)pyrimidine-5-carbonitrile], for which the Percent BCL6 remaining at maximal degradation (Ycon) was below 20%.
With `CN1C(=O)Cc2cc(Nc3nc(NC4CCN(c5ccc6c(N7CCC(=O)NC7=O)nn(C)c6c5)CC4)ncc3Cl)ccc21` [Example 133, 1-(6-(4-((5-chloro-4-((1-methyl-2-oxoindolin-5-yl)amino)pyrimidin-2-yl)amino)piperidin-1-yl)-1-methyl-1H-indazol-3-yl)dihydropyrimidine-2,4(1H,3H)-dione] the figure was above 60%; with `CN1C(=O)Cc2cc(Nc3nc(N4CCC(c5ccc6c(N7CCC(=O)NC7=O)nn(C)c6c5)CC4)ncc3Cl)ccc21` [Example 134, 1-(6-(1-(5-chloro-4-((1-methyl-2-oxoindolin-5-yl)amino)pyrimidin-2-yl)piperidin-4-yl)-1-methyl-1H-indazol-3-yl)dihydropyrimidine-2,4(1H,3H)-dione], above 60%; with `CN1C(=O)Cc2cc(Nc3nc(N4CCC(Nc5ccc6c(N7CCC(=O)NC7=O)nn(C)c6c5)CC4)ncc3Cl)ccc21` [Example 135, 1-(6-((1-(5-chloro-4-((1-methyl-2-oxoindolin-5-yl)amino)pyrimidin-2-yl)piperidin-4-yl)amino)-1-methyl-1H-indazol-3-yl)dihydropyrimidine-2,4(1H,3H)-dione], above 60%.
For `Cn1nc(N2CCC(=O)NC2=O)c2ccc(NC3CCN(c4ncc(Cl)c(Nc5ccc6c(c5)CC(=O)N6CC(F)(F)F)n4)CC3)cc21` [Example 136, 1-(6-((1-(5-chloro-4-((2-oxo-1-(2,2,2-trifluoroethyl)indolin-5-yl)amino)pyrimidin-2-yl)piperidin-4-yl)amino)-1-methyl-1H-indazol-3-yl)dihydropyrimidine-2,4(1H,3H)-dione], the Percent BCL6 remaining at maximal degradation (Ycon) was above 60%.
The same measure for `Cn1nc(N2CCC(=O)NC2=O)c2ccc(NC3CCN(c4ncc(Cl)c(Nc5ccc6c(c5)CC(=O)N6CCO)n4)CC3)cc21` [Example 137, 1-(6-((1-(5-chloro-4-((1-(2-hydroxyethyl)-2-oxoindolin-5-yl)amino)pyrimidin-2-yl)piperidin-4-yl)amino)-1-methyl-1H-indazol-3-yl)dihydropyrimidine-2,4(1H,3H)-dione]: 20 to 60%; for `CN1C(=O)Cc2cc(Nc3nc(N4CCC(Nc5ccc6c(N7CCC(=O)NC7=O)nn(C)c6c5)CC4)ncc3C#N)ccc21` [Example 138, 2-(4-((3-(2,4-dioxotetrahydropyrimidin-1(2H)-yl)-1-methyl-1H-indazol-6-yl)amino)piperidin-1-yl)-4-((1-methyl-2-oxoindolin-5-yl)amino)pyrimidine-5-carbonitrile]: above 60%.
The same measure for `C[C@@H]1CN(c2ncc(Cl)c(Nc3ccc4c(c3)CC(=O)N4C)n2)CC[C@H]1Nc1ccc2c(-n3ccc(=O)[nH]c3=O)nn(C)c2c1` [Example 139, 1-(6-(((3R,4R)-1-(5-chloro-4-((1-methyl-2-oxoindolin-5-yl)amino)pyrimidin-2-yl)-3-methylpiperidin-4-yl)amino)-1-methyl-1H-indazol-3-yl)pyrimidine-2,4(1H,3H)-dione]: below 20%; for `C[C@@H]1CN(c2ncc(Cl)c(Nc3ccc4c(c3)CC(=O)N4C)n2)CC[C@H]1Nc1ccc2c(-n3cc(F)c(=O)[nH]c3=O)nn(C)c2c1` [Example 140, 1-(6-(((3R,4R)-1-(5-chloro-4-((1-methyl-2-oxoindolin-5-yl)amino)pyrimidin-2-yl)-3-methylpiperidin-4-yl)amino)-1-methyl-1H-indazol-3-yl)-5-fluoropyrimidine-2,4(1H,3H)-dione]: below 20%.
The same measure for `C[C@@H]1CN(c2ncc(Cl)c(Nc3ccc4c(c3)CC(=O)N4C)n2)CC[C@H]1Nc1ccc2c(N3CCC(=O)NC3=O)nn(C)c2c1` [Example 141, 1-(6-(((3R,4R)-1-(5-chloro-4-((1-methyl-2-oxoindolin-5-yl)amino)pyrimidin-2-yl)-3-methylpiperidin-4-yl)amino)-1-methyl-1H-indazol-3-yl)dihydropyrimidine-2,4(1H,3H)-dione]: below 20%.
`C[C@@H]1CN(c2ncc(Cl)c(Nc3ccc4c(c3F)CC(=O)N4C)n2)CC[C@H]1Nc1ccc2c(N3CCC(=O)NC3=O)nn(C)c2c1` [Example 142, 1-(6-(((3R,4R)-1-(5-chloro-4-((4-fluoro-1-methyl-2-oxoindolin-5-yl)amino)pyrimidin-2-yl)-3-methylpiperidin-4-yl)amino)-1-methyl-1H-indazol-3-yl)dihydropyrimidine-2,4(1H,3H)-dione]: the Percent BCL6 remaining at maximal degradation (Ycon) was below 20%.
The same measure for `C[C@@H]1CN(c2ncc(Cl)c(Nc3cnc4c(c3)CC(=O)N4C)n2)CC[C@H]1Nc1ccc2c(N3CCC(=O)NC3=O)nn(C)c2c1` [Example 143, 1-(6-(((3R,4R)-1-(5-chloro-4-((1-methyl-2-oxo-2,3-dihydro-1H-pyrrolo[2,3-b]pyridin-5-yl)amino)pyrimidin-2-yl)-3-methylpiperidin-4-yl)amino)-1-methyl-1H-indazol-3-yl)dihydropyrimidine-2,4(1H,3H)-dione]: below 20%; for `CCN1C(=O)Cc2cc(Nc3nc(N4CCC(Nc5ccc6c(N7CCC(=O)NC7=O)nn(C)c6c5)CC4)ncc3Cl)ccc21` [Example 144, 1-(6-((1-(5-chloro-4-((1-ethyl-2-oxoindolin-5-yl)amino)pyrimidin-2-yl)piperidin-4-yl)amino)-1-methyl-1H-indazol-3-yl)dihydropyrimidine-2,4(1H,3H)-dione]: above 60%.
With `CO[C@@H]1CN(c2ncc(Cl)c(Nc3ccc4c(c3)CC(=O)N4C)n2)CC[C@H]1Nc1ccc2c(C3CCC(=O)NC3=O)nn(C)c2c1` (stereo partly drawn) [Example 146, 3-(6-(((3R,4R)-1-(5-chloro-4-((1-methyl-2-oxoindolin-5-yl)amino)pyrimidin-2-yl)-3-methoxypiperidin-4-yl)amino)-1-methyl-1H-indazol-3-yl)piperidine-2,6-dione] the figure was 20 to 60%; with `C[C@H]1CN(c2ccc3c(C4CCC(=O)NC4=O)nn(C)c3c2)C(=O)C[C@H]1N(C)c1ncc(Cl)c(Nc2ccc3c(c2)CC(=O)N3C)n1` (stereo partly drawn) [Example 149, 3-(6-((4R,5S)-4-((5-chloro-4-((1-methyl-2-oxoindolin-5-yl)amino)pyrimidin-2-yl)(methyl)amino)-5-methyl-2-oxopiperidin-1-yl)-1-methyl-1H-indazol-3-yl)piperidine-2,6-dione], 20 to 60%.
The same measure for `CO[C@@H]1CN(c2ncc(Cl)c(Nc3ccc4c(c3)CC(=O)N4C)n2)CC[C@H]1Nc1ccc2c(C3(C)CCC(=O)NC3=O)nn(C)c2c1` (stereo partly drawn) [Example 154, 3-(6-(((3R,4R)-1-(5-chloro-4-((1-methyl-2-oxoindolin-5-yl)amino)pyrimidin-2-yl)-3-methoxypiperidin-4-yl)amino)-1-methyl-1H-indazol-3-yl)-3-methylpiperidine-2,6-dione]: 20 to 60%.
